Laboratory results published in patent US6521594B1, “Method and composition for treating thrombosis” (La Jolla Cancer Research Foundation, priority 1990, dated 2003).
Where two headings read alike, the source gives them in different places.

Experiments:
[1] = molecular target: T1, vitronectin receptor (Vn-R) (Homo sapiens, UniProt P05106+P06756); test: Vitronectin receptor binding (ELISA or liposome attachment assay); settings: read-out: VnR Binding (IC50), purified receptor
T1 construct: from tissue; host or cells: human placenta
T1 sequence (P06756 31-889 limits assumed): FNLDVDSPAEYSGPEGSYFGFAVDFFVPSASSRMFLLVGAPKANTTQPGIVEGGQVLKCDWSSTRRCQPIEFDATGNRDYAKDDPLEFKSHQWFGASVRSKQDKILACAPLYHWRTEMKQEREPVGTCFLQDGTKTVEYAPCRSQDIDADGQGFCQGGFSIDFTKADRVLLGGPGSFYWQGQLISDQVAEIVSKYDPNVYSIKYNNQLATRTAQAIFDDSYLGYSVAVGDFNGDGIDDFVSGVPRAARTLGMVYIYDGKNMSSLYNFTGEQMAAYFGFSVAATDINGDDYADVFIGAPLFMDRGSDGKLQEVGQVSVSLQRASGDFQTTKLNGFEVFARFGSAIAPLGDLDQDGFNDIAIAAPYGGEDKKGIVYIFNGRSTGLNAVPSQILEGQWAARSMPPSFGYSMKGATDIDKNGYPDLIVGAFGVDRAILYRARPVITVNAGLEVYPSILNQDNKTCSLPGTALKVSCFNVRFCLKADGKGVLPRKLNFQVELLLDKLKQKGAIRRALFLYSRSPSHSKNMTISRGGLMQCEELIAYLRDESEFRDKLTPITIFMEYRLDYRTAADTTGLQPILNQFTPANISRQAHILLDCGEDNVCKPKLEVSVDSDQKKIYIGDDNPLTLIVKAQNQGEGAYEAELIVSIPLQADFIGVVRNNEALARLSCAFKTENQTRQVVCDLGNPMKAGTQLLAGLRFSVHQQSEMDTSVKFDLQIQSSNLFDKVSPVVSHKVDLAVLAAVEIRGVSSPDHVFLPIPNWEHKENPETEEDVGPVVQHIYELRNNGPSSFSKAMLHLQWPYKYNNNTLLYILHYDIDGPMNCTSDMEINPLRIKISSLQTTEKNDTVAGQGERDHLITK
T1 sequence (P06756 891-1048 limits assumed): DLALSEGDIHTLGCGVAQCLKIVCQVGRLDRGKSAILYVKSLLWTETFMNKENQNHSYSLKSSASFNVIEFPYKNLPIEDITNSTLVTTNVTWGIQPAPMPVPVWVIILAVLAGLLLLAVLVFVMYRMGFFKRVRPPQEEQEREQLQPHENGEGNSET
T1 sequence (P05106 27-788): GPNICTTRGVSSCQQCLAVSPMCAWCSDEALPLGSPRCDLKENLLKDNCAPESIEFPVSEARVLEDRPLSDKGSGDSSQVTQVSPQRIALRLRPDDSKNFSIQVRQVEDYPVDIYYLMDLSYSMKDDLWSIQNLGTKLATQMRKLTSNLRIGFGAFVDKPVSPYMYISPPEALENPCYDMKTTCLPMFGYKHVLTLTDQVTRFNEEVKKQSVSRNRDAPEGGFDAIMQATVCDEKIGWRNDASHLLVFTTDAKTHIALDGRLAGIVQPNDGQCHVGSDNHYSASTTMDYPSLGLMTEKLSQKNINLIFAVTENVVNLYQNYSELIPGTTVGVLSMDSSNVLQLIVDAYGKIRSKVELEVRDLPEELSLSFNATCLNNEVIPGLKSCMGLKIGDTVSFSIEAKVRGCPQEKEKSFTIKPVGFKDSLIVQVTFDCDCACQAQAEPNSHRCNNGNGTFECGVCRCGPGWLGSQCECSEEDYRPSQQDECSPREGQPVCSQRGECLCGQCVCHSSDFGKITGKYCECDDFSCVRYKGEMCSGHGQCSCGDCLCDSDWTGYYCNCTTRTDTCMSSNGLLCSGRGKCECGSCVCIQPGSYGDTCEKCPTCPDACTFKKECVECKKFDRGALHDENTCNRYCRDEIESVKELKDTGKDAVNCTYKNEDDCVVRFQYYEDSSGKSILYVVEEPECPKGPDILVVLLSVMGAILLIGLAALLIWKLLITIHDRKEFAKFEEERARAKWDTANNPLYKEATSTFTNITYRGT
Procedure: Receptor and ligand purifications were performed according to the methods in this Example or those in Example XI.C. Receptors were purified according to the procedures of Pytela et al. (Methods Enzymol. 144:475 (1987)), incorporated herein by reference. […] Except where stated, all procedures were carried out at 4° C. The peptide column was washed with three volumes of Tris-buffered saline (TBS) containing 1 mM Ca^2+ and 25 mM OG and then with TBS containing 1 mM Ca^2+ and 25 mM octyl thioglucoside (OTG) at room temperature. […] Finally, Ca^2+ and Mg^+2 were added to eluted fractions to achieve final concentrations of 1 mM for both ions.
Maxisorp microtiter plates were coated with 2 μg/ml human vitronectin dissolved in PBS (50 ml/well) and stored overnight at 4° C. The plates were washed two times with PBS-0.05% Tween-20 (wash buffer) and blocked by incubating with about 150 μl/well of assay buffer (1%, BSA (RIA grade or better) in 50 mM Tris-HCl, 100 mM NaCl, 1 mM MgCl2, CaCl2, MnCl2 pH 7.4) for 60 minutes. […] The plates were read at 492-405 nm and the data analyzed by four-parameters fit. […]
In parallel studies with the platelet aggregation experiments (described in Example V), the apparent affinities of peptides for GP IIb/IIIa, fibronectin and vitronectin receptors were determined. […]
Those for VnR and GP IIb/IIIa were determined either by ELISA or liposome attachment assay (Example IV).

[2] = molecular target: T2, αIIbβ3 (Homo sapiens, UniProt P05106+P08514); test: αIIbβ3 (IIb/IIIa-fibrinogen) ELISA of Example XII; format: binding; settings: comparator analogue 1
T2 construct: Platelet glycoprotein IIb/IIIa was purified from outdated human platelets; from tissue; host or cells: outdated human platelets
T2 sequence (P08514 32-887 limits assumed): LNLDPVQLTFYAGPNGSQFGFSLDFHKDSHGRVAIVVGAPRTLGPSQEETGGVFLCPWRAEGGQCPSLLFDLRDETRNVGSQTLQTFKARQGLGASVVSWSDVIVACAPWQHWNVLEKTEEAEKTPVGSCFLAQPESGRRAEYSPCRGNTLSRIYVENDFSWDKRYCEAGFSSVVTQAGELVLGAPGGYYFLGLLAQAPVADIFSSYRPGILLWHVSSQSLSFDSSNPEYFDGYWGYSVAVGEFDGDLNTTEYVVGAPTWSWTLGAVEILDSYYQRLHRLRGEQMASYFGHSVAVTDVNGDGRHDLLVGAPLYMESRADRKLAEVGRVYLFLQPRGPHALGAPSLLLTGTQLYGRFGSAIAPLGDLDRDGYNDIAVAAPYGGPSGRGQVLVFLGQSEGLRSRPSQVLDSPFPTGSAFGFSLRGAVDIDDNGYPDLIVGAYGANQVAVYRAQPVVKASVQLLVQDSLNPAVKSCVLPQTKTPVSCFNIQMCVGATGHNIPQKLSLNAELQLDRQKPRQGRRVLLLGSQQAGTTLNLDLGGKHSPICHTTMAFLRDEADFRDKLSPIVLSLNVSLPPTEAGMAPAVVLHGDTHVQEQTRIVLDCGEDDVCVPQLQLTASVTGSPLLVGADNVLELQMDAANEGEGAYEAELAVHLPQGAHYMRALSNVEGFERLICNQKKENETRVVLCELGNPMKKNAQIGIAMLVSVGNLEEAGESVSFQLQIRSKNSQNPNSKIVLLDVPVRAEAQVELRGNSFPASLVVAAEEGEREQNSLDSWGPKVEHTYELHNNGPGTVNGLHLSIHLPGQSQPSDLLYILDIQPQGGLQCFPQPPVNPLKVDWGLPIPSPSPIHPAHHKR
T2 sequence (P08514 891-1039 partner limits assumed): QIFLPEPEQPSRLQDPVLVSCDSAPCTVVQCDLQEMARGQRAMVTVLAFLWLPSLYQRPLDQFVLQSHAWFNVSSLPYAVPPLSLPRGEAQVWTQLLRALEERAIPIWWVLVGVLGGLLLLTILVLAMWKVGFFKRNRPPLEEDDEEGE
T2 sequence (P05106 27-788): as the sequence (P05106 27-788) above
Procedure: Microtiter plates were coated overnight at room temperature with 110 μL of human fibrinogen (at 10 μg/mL) diluted in TBS. The plates were then washed three times with 200 μL per well of TBS+0.05% Tween-20. Fifty (50) μL of purified IIb/IIIa diluted in TBS with 20 mM octylglucoside, 2 mM MgCl2 and 2 mM CaCl2 were added to the wells. Fifty (50) μLs of peptide in the same buffer were then added in 10-fold serial dilutions and the plates were incubated for three hours at room temperature. The plates were washed three times with TBS-Tween and 100 μL of rabbit anti-IIb/IIIa were added to each well. After a two hour room temperature incubation, the plates were washed and the remaining steps done as described for the FnR ELISA.
The peptides described in this Example were synthesized according to the methods of Examples I and XI. Selectivity and potency were measured according to the methods of Examples II through XI. The peptide identification numbers used in this Example are consistent and relevant to this Example only. Some of the peptides are identified by other nomenclature elsewhere in this document.

[3] = tested on: platelets; test: Ex vivo platelet aggregation in dogs (Example XII.H); design: species or system dog; dose or concentration left out as unconfirmed
Procedure: More importantly, several peptides in FIG. 23 were administered to dogs (according to the method of Example VII) at doses capable of inhibiting ex vivo platelet aggregation by >95%.
The bleeding time indicated in the parentheses was measured at a five-fold higher concentration of peptide. […]

[4] = tested on: canine platelets; test: Canine platelet aggregation in vitro (ADP, arachidonic acid, collagen); format: cell-based, dog
Procedure: (§1) Platelet counts and ex vivo aggregation studies were performed one hour before and 1, 3, and 5 hours after application of anodal direct current.
Epinephrine (550 nM) was used to prime platelets before stimulation with arachidonic acid. Peptides were added in 1% dilutions to the PRP solutions.

[5] = tested on: platelets; test: Ex vivo platelet aggregation in the canine coronary thrombosis study; design: species or system dog
Procedure: For all ex vivo studies (see FIG. 3), control aggregation values were standardized to the percentages of light transmission observed in PRP and PPP samples (0% and 100%, respectively).
(§2) Animals were randomly assigned to two treatment groups: vehicle control (i.e., normal saline) or RGD peptides at various concentrations. Peptides were administered intra-atrially in both bolus and continuous injections. Each bolus injection consisted of 0.5 to 10 mg/kg and was administered 15 minutes before application of the current. A continuous infusion of the same peptide was then started immediately after completion of this initial injection. Animals received a 25 μg/kg/min to 200 μg/kg/min infusion. The anti-thrombotic effects of the peptides were monitored until 30 minutes after the occurrence of a persistent, occlusive thrombus or five hours after the initiation of electrical stimulation (whichever resulted first). If an occlusive thrombus had not developed within four hours after the initiation of current, the peptide infusion was stopped.
as §1
Platelet aggregation was also determined ex vivo at one, three, and five hours after current application. For these studies, arachidonic acid, or collagen was again used to stimulate the platelets.

[6] = tested on: prosthetic arterial graft thrombosis; test: Platelet and fibrinogen uptake by Gore-Tex arterial grafts in ex vivo shunt; design: species or system baboon
Procedure: Adult male baboons (weighing 16 to 25 kg) were used in these studies. These were sedated with ketamine hydrochloride (200 to 250 mg intramuscular injection) and maintained under anesthesia with sodium pentobarbital (50 to 75 mg administered intravenously as necessary).
Twenty-four hours before the ex vivo shunt was established, platelets were isolated from 500 ml of blood from the test animal and labelled with ca. 500 microcuries of indium-111 oxine (Medi+Physics, Emeryville, Calif.), which irreversibly and specifically binds to platelets with an efficiency of 50%. Immediately after labelling, these platelets were then injected back into the animal and allowed to circulate for 24 hours. Immediately before the start of the study, fibrinogen that had been isolated from the animal and labelled with iodine-131 (DuPont Nuclear, Boston, Mass.) was also injected back into the animal. Also at this time, baseline determinations of the clotting and template bleeding times were made, and blood samples were drawn for hematology studies.
To establish the ex vivo shunt, the femoral artery and vein were percutaneously cannulated with introducer catheters (KMA Inc., Mansfield, Mass.). The catheters were then connected to medical-grade, heparin-coated silastic tubing (2.59 mm internal diameter, (Extracorporeal Medical Specialties, Inc., King of Prussia, Pa.). […] Finally, a 5 cm-long test segment of a 4 mm (internal diameter) vascular graft was inserted at the apex of the circuit. The graft used in these studies was Gore-tex (expanded polytetrafluoroethylene, (W. L. Gore and Associates, Inc., Flagstaff, Ariz.). An electromagnetic flow probe was then inserted into the tubing circuit to measure blood flow, which was maintained at 100 ml/min. by varying the resistance imported by a partially occluding screw clamp that was distal to the probe. Finally, a 5 cm-long test segment of a 4 mm (internal diameter) vascular graft was inserted at the apex of the circuit. The graft used in these studies was Gore-tex (expanded polytetrafluoroethylene, W. L. Gore and Associates, Inc., Flagstaff, Ariz.).
Platelet deposition onto the grafts was monitored by dynamic scanning with a gamma camera (Sigma 400, Ohio Nuclear, Inc., Sohon, Ohio), which detects the gamma radiation emitted by the ^111indium-labelled platelets. Once the circuit was in place, the animal was placed under this camera, and blood flow was initiated. Scans were then taken at the rate of one frame per two minutes for two hours. The data from these scans were collected on a dedicated Digital MDA computer (Maynard, Mass.). […]

[7] = tested on: platelets; test: Ex vivo platelet aggregation on PRP of baboon; format: in vivo; settings: animal 2; ADP 10 μm; 0, 1 and 2 hours
Procedure: At one- and two-hour time points, template bleeding times were measured, and blood samples were drawn to assess the hematology aggregation studies. Platelet aggregation studies were performed as described in Example V using ADP as the stimulus.
In addition, platelet aggregation studies were conducted on PRP derived from the second animal. Whole blood was drawn at three time points (0, 1 and 2 hours) of both control and experimental shunts.

[8] = tested on: coronary thrombosis; test: Electrically induced canine coronary thrombosis (time to full occlusion); format: in vivo, dog
Procedure: Male mongrel dogs weighing 14 to 20 kg were selected based on proper aggregation of their platelets in response to arachidonic acid, collagen, and adenosine disphosphate (ADP) and based on similar weights and hemodynamic properties.
Before surgery, the animals were anesthetized with sodium pentobarbital (30 mg/kg, i.v.) and then intubated and ventilated on room air with positive pressure using a respirator (Harvard Apparatus, S. Natick, Mass.) at a volume of 30 ml/kg and a frequency of 12 breaths/min. Surgery, performed under aseptic conditions, was begun with the placement of cannulae into the left carotid artery and jugular vein for monitoring arterial blood pressure (Statham P23 pressure transducer, Gould, Inc., Cardiovascular Products, Oxnard, Calif.) and administering intravenous fluids.
The heart was exposed via a left thoracotomy through the 5th intercostal space. A 2-cm segment of the left circumflex coronary artery (LCCA) was isolated from surrounding tissue by blunt dissection. […] The intra-coronary electrode was constructed by attaching a 25-gauge hypodermic needle tip to a 30-gauge Teflon-insulated silver-coated copper wire. The mechanical occluder was constructed of stainless steel in a C shape with a Teflon screw (2 mm diameter) on top. It was adjusted to control vessel circumference and decrease the reactive hyperemic flow due to a 10-sec (full) occlusion by 50-70% without affecting basal coronary blood flow (FIG. 1). A monopolar epicardial electrode was sutured to the surface of the ventricle in the region of LCCA distribution to monitor ischemic changes in the electrocardiogram (ECG). The left atrium was cannulated with polythylene tubing for administration of the peptide. Continuous recordings of blood pressure, limb lead II ECG, epicardial electrogram, and mean and phasic LCCA blood flow were obtained on a Model 7 polygraph (Grass Instrument Co., Quincy, Mass.).
One hour after the completion of surgery, a 100 micro-amp continuous anodal direct current delivered from a 9 volt nickel-cadmium battery was applied to the intimal surface of the LCCA. The anode of the battery was in series with a 250,000 ohm potentiometer and the intraluminal coronary artery electrode. The electric circuit was completed by placing the cathode in a subcutaneous site. Electrical stimulation was applied for three hours. At the conclusion of each experiment, the heart was fibrillated electrically and quickly removed, and the LCCA was dissected free as far as possible to verify the position of the implanted anodal electrode.
as §2
Coronary thrombosis was quantified as the time to full occlusion. The effects of the various peptide treatments on coronary thrombosis is illustrated in FIG. 4.

[9] = molecular target: T3, platelets (Homo sapiens, UniProt P05106+P08514); test: Human platelet aggregation in PRP (modified assay, Table II); format: cell-based; settings: citrate, collagen, U46619 or ADP
T3 sequence (P08514 32-1039): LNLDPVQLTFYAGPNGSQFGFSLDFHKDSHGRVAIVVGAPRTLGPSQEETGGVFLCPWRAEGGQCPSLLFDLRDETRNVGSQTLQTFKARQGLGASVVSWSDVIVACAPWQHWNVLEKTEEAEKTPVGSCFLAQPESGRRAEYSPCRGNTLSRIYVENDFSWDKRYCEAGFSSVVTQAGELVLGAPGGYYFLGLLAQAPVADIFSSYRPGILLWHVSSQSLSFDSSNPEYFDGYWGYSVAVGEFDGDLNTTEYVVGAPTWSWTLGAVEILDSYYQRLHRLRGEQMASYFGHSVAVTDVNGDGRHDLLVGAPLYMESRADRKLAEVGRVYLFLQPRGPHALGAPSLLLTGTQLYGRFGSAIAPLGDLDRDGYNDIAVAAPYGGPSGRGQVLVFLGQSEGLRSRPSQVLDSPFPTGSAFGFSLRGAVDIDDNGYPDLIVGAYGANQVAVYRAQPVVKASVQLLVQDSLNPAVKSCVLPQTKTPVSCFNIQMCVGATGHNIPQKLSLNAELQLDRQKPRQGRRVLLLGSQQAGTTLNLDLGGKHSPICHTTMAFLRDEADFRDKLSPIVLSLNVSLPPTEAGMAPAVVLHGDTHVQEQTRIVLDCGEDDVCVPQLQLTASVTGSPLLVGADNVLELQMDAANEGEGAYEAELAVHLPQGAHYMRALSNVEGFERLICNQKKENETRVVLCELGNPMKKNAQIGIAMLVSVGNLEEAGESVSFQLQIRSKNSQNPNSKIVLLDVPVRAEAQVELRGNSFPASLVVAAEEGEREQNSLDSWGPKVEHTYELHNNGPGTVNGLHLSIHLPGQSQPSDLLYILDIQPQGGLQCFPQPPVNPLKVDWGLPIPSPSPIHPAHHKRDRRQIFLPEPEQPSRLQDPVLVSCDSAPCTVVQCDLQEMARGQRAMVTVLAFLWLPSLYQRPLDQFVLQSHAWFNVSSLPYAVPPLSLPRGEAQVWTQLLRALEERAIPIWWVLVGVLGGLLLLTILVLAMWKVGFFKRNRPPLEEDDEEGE
T3 sequence (P05106 27-788): as the sequence (P05106 27-788) above
Procedure: In an independent study, a slightly modified aggregation assay was used. Platelet aggregation assays were performed in human platelet rich plasma (PRP). […] The blood was centrifuged at 160×g for 10 minutes at 22° C. and allowed to stand for 5 minutes after which the PRP was decanted. Platelet poor plasma (PPP) was isolated from the remaining blood after centrifugation at 2000×g for 25 minutes. The platelet count of the PRP was diluted to about 300,000 platelets per microliter with PPP.
A 225 μl aliquot of PRP plus 25 μl of either a dilution of the test inhibitor sample or a control (PBS) was incubated for 5 minutes in a Chrono-log Whole Blood Aggregometer at 37° C.

[10] = molecular target: T3, platelets; format: cell-based; settings: ADP 10 μm; citrated PRP; read-out: ADP-Stimulated Aggregation (IC50)
Procedure: Briefly, the change in light transmission was measured through a stirred suspension of platelets in an aggregometer (Model 400 VS, Chrono-Log, Havertown, Pa., USA). […] In studies using thrombin, the PRP was gel-filtered on Sepharose 2B in divalent ion-free Tyrode's solution containing 2% BSA. For all studies, the reference standard was platelet-poor plasma, which was obtained by centrifuging PRP at 1000×g for 5 min.
All aggregation studies were performed at 37° C. with a constantly stirred suspension of 3×10^8 platelets/ml. (Platelet count was determined with the aid of a hemacytometer.) Peptides and stimulants were added to these suspensions in 1% dilutions. The PRP and gel-filtered platelets were used within three hours from the time of blood collection.
Peptide anti-aggregation potencies were determined from dose-responsive curves for the inhibition of the maximum aggregation responses stimulated by physiologic doses of ADP (10 μm) and thrombin (2 U/ml).

[11] = 10 mg/kg injection, 1, 3 and 5 h
[12] = animal 1, two bolus IV injections of 10 mg/kg
[13] = animal 2, 10 mg/kg bolus IV + 10 mg/kg/hr infusion for 2 h

In the case of G(Pen)IARGDWNCA, the IC50 [1] is reported as 0.04 µM.
In the case of G(dPen)GHRGDLRCA, the “fold more potent than analogue 1 in the αIIbβ3 assay” value [2] is reported as “approximately 2 fold”.
Ac-CNPRGD(Y-OMe)RCNH2 [8X] was tested, and the “inhibition of ex vivo platelet aggregation” value [3] was > 95%.
For GRGDSP [reference compound], the IC50 ([4]; all three responses (ADP, arachidonic acid, collagen), read-out: concentration inhibiting canine platelet aggregation by 50%) was ~130 µM.
G(Pen)GHRGDLRCA [2G] was tested, and the IC50 ([4]; 10 μm ADP, […] arachidonic acid or 9.6 micrograms/ml collagen, canine PRP, read-out: IC50 against canine platelet aggregation) was 15 to 30 µM, the “effect on ADP-stimulated ex vivo aggregation” value [5, 11] was “substantially inhibited” and the “inhibition of AA-stimulated ex vivo aggregation relative to control” value [5, 11] was 43-70%. The “inhibition of collagen-stimulated ex vivo aggregation relative to control” value [5, 11] was 12-50%, the “reduction in 111In-platelet uptake by graft” value [6, 12] was 90% and the “reduction in 131I-fibrinogen uptake by graft” value [6, 12] was 79%. For the same substance, the “reduction in labelled fibrinogen uptake by graft” value [6, 13] was 78%, the “reduction in labelled platelet uptake by graft” value [6, 13] was 84% and the “ex vivo platelet aggregation response” value [7] was “completely unresponsive to the peptide treatment”. For the same substance, the “coronary thrombosis: time to full occlusion” value (“coronary thrombosis: time” below) ([8]; 10 mg/kg) was “did not significantly influence”.
For R(Pen)GHRGDWRCR [4Q], the “ex vivo platelet activation by collagen” value ([5]; 5 mg/kg injection) was “near-maximal inhibition”, the “ex vivo platelet response to ADP and AA” value ([5]; 5 mg/kg injection, all three time points) was “completely unresponsive” and the “ex vivo platelet aggregation by ADP, AA and collagen” value ([5]; 10 mg/kg injection) was “prevented platelet aggregation by all three stimuli at one- and three-hour time points”. For the same substance, the “coronary thrombosis: time” value ([8]; 5 mg/kg) was “significantly prolonged the time to occlusion”, the “thrombus formation in animals with platelet levels one-third of normal” value ([8]; 5 mg/kg) was “able to prevent thrombus formation” and the “coronary thrombosis: time” value ([8]; 10 mg/kg) was “completely prevented occlusion”. It also gave an IC50 [9] of 3.3 µM and an IC50 [10] of 1.3 µM.
